Laboratory results published in patent US10787423B2, “Piperazine and piperidine derivatives, their synthesis and use thereof in inhibiting VDAC oligomerization, apoptosis and mitochondria dysfunction” (THE NATIONAL INSTITUTE FOR BIOTECHNOLOGY IN THE NEGEV LTD., priority 2015, dated 2020).

Biological target: T1, rVDAC1-GFP2 / rVDAC1-Rluc in T-REx-293 cells (Rattus norvegicus, UniProt Q9Z2L0)
T1 construct: The rVDAC1 gene was cloned into BamHI and HindIII sites of the BRET2 plasmids (N2 variants); expressed in transfected cells; host or cells: T-REx-293 cells stably expressing hVDAC1-shRNA (T-REx-pS10)
Assay: BRET2 assay of VDAC1 oligomerization induced by apoptosis inducers (Method A)
Assay type: cell-based
Conditions: test compound 10 μM, 1 h pre-incubation; for BRET2, % of inhibition, As2O3: As2O3 60 μM (3 h); for BRET2, % of inhibition, STS: STS 1 μM (3 h); for BRET2, % of inhibition, Selenite: selenite 30 μM (3 h)
Text: BRET2 screening may be carried out as described in the art ([…] et al., (2010) Oligomerization of the mitochondrial protein voltage-dependent anion channel is coupled to the induction of apoptosis. Mol Cell Biol 30, 5698-5709). Plasmids encoding the fusion proteins rat(r)VDAC1-GFP2 and rVDAC1-luc were constructed using the BRET2 plasmids (Perkin Elmer, Waltham, Mass.). The rVDAC1 gene was cloned into BamHI and HindIII sites of the BRET2 plasmids (N2 variants) and amplified using the forward primer [NT] and the reverse primer [NT]. […] The cells were transfected using calcium phosphate method. Transfections were carried out with 0.2 μg of a plasmid coding for rVDAC1-Rluc and with 0.8 μg of a plasmid coding for rVDAC1-GFP2. As a negative control, cells were transfected with plasmids encoding for rVDAC1-Rluc (0.2 μg DNA) and GFP2 (0.8 μg). In another control (control cells), cells were also transfected with a plasmid encoding for rVDAC1-luc (0.2 μg) and plasmid pcDNA4/TO (0.8 μg). The BRET2 signal represents the ratio of the GFP2 fluorescence, measured at its emission wavelength (510 nm), over the light intensity (luminescence) emitted at 395 nm. All measurements were performed using the Infinite 200 ELISA reader (Tecan). BRET2 signals were defined as GFP2/Rluc intensity ratio and calculated as follows: DNA encoding fusion proteins rVDAC1-Rluc (in which RLuc was connected to rVDAC1 at the C terminal position through a linker (GGGS)) and rVDAC1-GFP2 (in which the GFP2 was fused to the rVDAC1 C terminus) was cloned into BRET2 vectors. rVDAC1-GFP2 and rVDAC1-Rluc were expressed in T-REx-293 cells stably expressing shRNA-hVDAC1 and a low level of endogenous hVDAC1 (referred to as T-REx-pS10 cells) hVDAC1-shRNA, being specific to human VDAC1, allowed the expression of rVDAC1 and decreased the participation of endogenous hVDAC1 in oligomerization, thereby enhancing the BRET2 signal. rVDAC1-GFP2 and rVDAC1-Rluc expression levels were correlated with the amount of plasmids used. […] Following incubation, cells were harvested using trypsin, washed twice with PBS by centrifugation at 1000×g, 5 min, resuspended in 200 μl of PBS and divided between two wells of a 96-well clear-bottom plate (Grenier). […] The screening was conducted using BRET2 assay as described above. […] After treatment, the medium was removed and assayed for BRET2 signals as described above. Liquid handling was done with the Tecan (Männedorf, Switzerland) Freedom 150 Robotic & MCA Liquid Handling System, while luciferase luminescence and fluorescence readings were obtained a robot-integrated Tecan Infinite M1000 reader. Method A was used for screening of VDAC1 oligomerization inhibitors. […] Table 2 provides a summary of BRET2-based screen results of the anti-VDAC1 oligomerization activity of compounds from the NCI library. Results are presented as percent inhibition of the BRET2 signal induced by the indicated pro-apoptotic agent.

T1 sequence (Q9Z2L0 with tags, fused parts or gaps limits assumed): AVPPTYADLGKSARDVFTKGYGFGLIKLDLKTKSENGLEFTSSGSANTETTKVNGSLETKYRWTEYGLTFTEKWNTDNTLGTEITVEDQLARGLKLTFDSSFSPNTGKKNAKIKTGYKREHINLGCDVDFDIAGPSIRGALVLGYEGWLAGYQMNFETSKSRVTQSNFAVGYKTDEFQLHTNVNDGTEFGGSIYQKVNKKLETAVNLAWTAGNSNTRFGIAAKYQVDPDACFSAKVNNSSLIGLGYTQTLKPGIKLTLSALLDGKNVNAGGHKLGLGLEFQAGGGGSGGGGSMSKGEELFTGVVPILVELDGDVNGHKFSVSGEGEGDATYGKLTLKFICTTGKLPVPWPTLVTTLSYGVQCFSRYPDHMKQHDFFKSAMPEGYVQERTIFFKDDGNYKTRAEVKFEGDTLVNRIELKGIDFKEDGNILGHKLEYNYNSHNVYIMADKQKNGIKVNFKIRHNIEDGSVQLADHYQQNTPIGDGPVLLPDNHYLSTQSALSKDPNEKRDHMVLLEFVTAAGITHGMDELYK

SMILES | BRET2, % of inhibition, As2O3 | BRET2, % of inhibition, STS | BRET2, % of inhibition, Selenite
S=c1nc[nH]c2c1ncn2C1CCCC1 [NSC 19487] | 88.8% | 32.6% | 68.6%
COc1ccc(/C=C2/CCOC2=O)cc1 [NSC 10428] | 96.4% | 38.2% | 75.7%
CC(C)COC(=O)NC1c2ccccc2Oc2ccccc21 [NSC 31069] | 74.9% | 0% | 0%
CCOC(=O)Nc1ccc(C(=O)/C=C/c2ccccc2)cc1 [NSC 31703] | 56.7% | 16.6% | 33.3%
O=C(O)c1ccccc1C(=O)Nc1ccccc1[N+](=O)[O-] [NSC 41066] | 48.8% | 0% | 0%
CCCCC(=O)N1CCCC(C)C1 (stereo not drawn) [NSC 191029] | 86.5% | 0% | 36.4%
CN1CCN(C(=O)Nc2ccc([N+](=O)[O-])cc2)CC1 [NSC 36815] | 67.7% | 34.5% | 50%
O=C(O)c1ccc(O)c(O)c1 [NSC 16631] | 0% | 30.5% | 41.5%
O=C(O)c1cc2ccccc2cc1Nc1ccccc1 [NSC 40275] | 64.8% | 16.8% | 35.2%
O=[N+]([O-])c1ccc(-c2ncc(-c3ccc(Br)cc3)o2)cc1 [NSC 372767] | 77.3% | 0% | 26.6%
CCCOc1nc2c(c(=O)n(C)c(=O)n2C)n1C [NSC 8816] | 49.6% | 0% | 20.1%
Oc1ccc(Cc2ccc(Cl)cc2)c(O)c1 [NSC 11150] | 95.2% | 11.6% | 67%
CN(C)c1cccc(/C=C(\C#N)c2ccccc2)c1 [NSC 667251] | 77.5% | 1.4% | 0%
Cc1ccc([N+](=O)[O-])cc1NC(=O)Nc1ccc(S(N)(=O)=O)cc1 [NSC 146554] | 100% | 0% | 71.8%
Clc1ccc(-c2nc(-c3cc4cc(Cl)ccc4o3)cs2)cc1 [NSC 321502] | 67.3% | 22.4% | 46.5%
O=C(Nc1ccc(Br)c2ccccc12)c1ccc2ccccc2c1O [NSC 601359] | 97.7% | 46% | 74.4%
CCOc1ccc(Nc2c3ccccc3nc3ccccc23)cc1 [NSC 30205] | 62.7% | 0% | 0%
Cc1ccc(-n2nnnc2-c2cccnc2)cc1 [NSC 23247] | 97.3% | 0% | 52.1%
NC(=O)c1ccc(Oc2ccc(C(N)=O)cc2)cc1 [NSC 39047] | 70.2% | 39.1% | 54%
C=CCNC(=O)c1ccc(OC)cc1 [NSC 404057] | 74.6% | 0% | 37.1%
O=[N+]([O-])c1cccc(/C=C/c2ccccn2)c1 [NSC 19637] | 76.2% | 0% | 61.8%

SMILES | BRET2, % of inhibition, As2O3 | BRET2, % of inhibition, STS | BRET2, % of inhibition, Selenite
O=C(Oc1ccc(NC(=O)c2cc3c(cc2Br)OCO3)cc1)c1ccccc1 [NSC 268487] | 86.7% | 0% | 69.4%
O=C(/C=C/c1ccccc1Cl)c1ccc(O)cc1 [NSC 13151] | 67% | 0% | 0%
Nc1ncnc2c1cnn2C1CCCCC1 [NSC 19115] | 64.2% | 36.4% | 62%
O=C(Nc1ccccc1-c1ccccc1)C(=O)Nc1ccccc1-c1ccccc1 [NSC 338042] | 44.7% | 0% | 80.2%
CC1=CC(=O)C(C(C)=Nc2ccccc2Cl)C(=O)O1 (stereo not drawn) [NSC 32892] | 55.4% | 0% | 16.4%
NCc1c(O)ccc2ccccc12 [NSC 48422] | 0% | 36.8% | 38.6%
CCOC(=O)N1CCN(Cc2c(O)ccc3ccccc23)CC1 [NSC 12262] | 81.5% | 0% | 67.4%
CN(C)c1ccc(N=Nc2cccc3ccoc23)cc1 [NSC 680515] | 87.8% | 33.4% | 66.3%
Cc1ccc(NC(=O)Nc2nc3ccccc3s2)cc1NC(=O)Nc1nc2ccccc2s1 [NSC 319990] | 96.2% | 22% | 43.2%
CCOc1cccc(/C=C2\NC(=S)N(c3ccccc3)C2=O)c1O [NSC 343966] | 39.4% | 0% | 20.1%
O=C(O)c1cc2ccccc2c2cc(Br)ccc12 [NSC 151252] | 100% | 0% | 29.8%
O=C(Nc1cccc([N+](=O)[O-])c1)c1cccc(C(=O)Nc2cccc([N+](=O)[O-])c2)c1 [NSC 204232] | 90.3% | 0% | 32.5%
Nc1ccc(C(=O)Oc2ccc([N+](=O)[O-])cc2)cc1 [NSC 163802] | 65.8% | 0% | 1.2%
COc1c(NC(C)=O)c2ccccc2c2ccccc12 [NSC 31698] | 51.3% | 0% | 2.1%
COC(=O)C1(C)Cc2cc(OC(C)=O)c(OC(C)=O)cc2N1 (stereo not drawn) [NSC 341956] | 51.5% | 0% | 24%
Nc1cc2c3c(cccc3c1)C(=O)N(CCN1CCCC1)C2=O [NSC 308849] | 99.5% | 0% | 0%
Clc1ccc(/C=C/c2nc(Cl)c(-c3ccc(Cl)cc3)c(Cl)n2)cc1 [NSC 154389] | 90.6% | 45.9% | 90.6%
Nc1ccc(NC(=O)Nc2ccc(N)cc2)cc1 [NSC 15364] | 85.4% | 40.9% | 75.9%
O=C(Nc1ccc(Nc2ccncc2)cc1)c1ccc(Nc2ccnc3ccc([N+](=O)[O-])cc23)cc1 [NSC 146771] | 70.7% | 41.2% | 68.1%
O=C(Nc1ccc(Cl)c(Cl)c1)Nc1ccccc1O [NSC 522131] | 86.8% | 0% | 47.6%
c1ccc2c(c1)[nH]c1c3ccccc3sc21 [NSC 605333] | 63.7% | 0% | 16%
